# Experimental data from PMC5775428, “Towards an experimental classification system for membrane active peptides” (Scientific Reports, 2018).
# Where two headings read alike, the source gives them in different places.
# Columns and labels:
# [1] = tested on: Erwinia carotovora; settings: Erwinia carotovora; for Minimum inhibitory concentration, Average: average of triplicates
# Experimental: (§1) Antimicrobial activity was tested against three categories of human and plant pathogenic microorganisms: Gram-positive (Bacillus subtilis, Bacillus cereus, Staphylococcus aureus), Gram-negative (Escherichia coli, Pseudomonas aeruginosa, Erwinia carotovora, Pseudomonas syringae pv. tabaci, Xanthomonas campestris pv. citri) and yeasts (Candida albicans, Cryptococcus neoformans), as previously reported. […] The full list of peptide MICs was published in an accompanying paper, and is available in the current publication as supplementary dataset (Supplementary dataset 01).
# (§2) The determination of the minimum inhibitory concentration (MIC) of peptides was performed as described in “Encrypted Antimicrobial Peptides from Plant Proteins”[7]. Briefly, MICs were determined following protocols M7-A10 and M27-A3 from Clinical & Laboratory Standards Institute (CLSI) for bacteria and yeasts, respectively. Different concentrations of IAPs (0.5 to 256 μM) were tested against several microorganisms in a final volume of 100 µL. Three biological repetitions, with 2 technical replicates each, were performed for each test, on polystyrene flat-bottom 96 wells microplates. The minimum inhibitory concentration (MIC) was defined as the concentration at which no cells were detected when visualized by optical microscopy. Please refer to the literature[7] for further details of the microbiological assays.
# [2] = tested on: Xanthomonas campestris; settings: for Minimum inhibitory concentration, Average: average of triplicates
# Experimental: as §1, §2
# [3] = tested on: Pseudomonas syringae pv. tabaci; settings: Pseudomonas syringae pv. tabaci; for Minimum inhibitory concentration, Average: average of triplicates
# Experimental: as §1, §2
# [4] = tested on: Staphylococcus aureus; settings: Staphylococcus aureus; for Minimum inhibitory concentration, Average: average of triplicates
# Experimental: as §1, §2
# [5] = tested on: Bacillus subtilis; settings: Bacillus subtilis; for Minimum inhibitory concentration, Average: average of triplicates
# Experimental: as §1, §2
# [6] = tested on: Bacillus cereus
# Experimental: as §1, §2
# [7] = tested on: Cryptococcus neoformans; settings: Cryptococcus neoformans; for Minimum inhibitory concentration, Average: average of triplicates
# Experimental: as §1, §2
# [8] = tested on: Escherichia coli; settings: Escherichia coli; for Minimum inhibitory concentration, Average: average of triplicates
# Experimental: as §1, §2
# [9] = tested on: Pseudomonas aeruginosa
# Experimental: as §1, §2
# [10] = tested on: Candida albicans; settings: Candida albicans; for Minimum inhibitory concentration, Average: average of triplicates
# Experimental: as §1, §2
# [11] = Bacillus cereus, CLSI M7-A10, triplicate 1
# [12] = Bacillus cereus, average of triplicates
# [13] = Pseudomonas aeruginosa, CLSI M7-A10, triplicate 1
# [14] = Pseudomonas aeruginosa, average of triplicates
# [15] = Pseudomonas aeruginosa, triplicate 2
# [16] = Pseudomonas aeruginosa, triplicate 3
# [17] = CLSI M27-A3, 0.5 to 256 μM tested, triplicate 1, also published in ref 7
Sequence,"Minimum inhibitory concentration ([1]; CLSI M7-A10, triplicate 1) [µM]","Minimum inhibitory concentration, Average [1] [µM]",Minimum inhibitory concentration ([1]; triplicate 2) [µM],Minimum inhibitory concentration ([1]; triplicate 3) [µM],"Minimum inhibitory concentration ([2]; CLSI M7-A10, triplicate 1) [µM]","Minimum inhibitory concentration, Average [2] [µM]",Minimum inhibitory concentration ([2]; triplicate 2) [µM],Minimum inhibitory concentration ([2]; triplicate 3) [µM],"Minimum inhibitory concentration ([3]; CLSI M7-A10, triplicate 1) [µM]","Minimum inhibitory concentration, Average [3] [µM]",Minimum inhibitory concentration ([3]; triplicate 2) [µM],Minimum inhibitory concentration ([3]; triplicate 3) [µM],"Minimum inhibitory concentration ([4]; CLSI M7-A10, triplicate 1) [µM]","Minimum inhibitory concentration, Average [4] [µM]",Minimum inhibitory concentration ([4]; triplicate 2) [µM],Minimum inhibitory concentration ([4]; triplicate 3) [µM],"Minimum inhibitory concentration ([5]; CLSI M7-A10, triplicate 1) [µM]","Minimum inhibitory concentration, Average [5] [µM]",Minimum inhibitory concentration ([5]; triplicate 2) [µM],Minimum inhibitory concentration ([5]; triplicate 3) [µM],further results
FFGHIWHGARTLFRDVFA [Cs02],32,32.0,32,32,32,32.0,32,32,4,4.0,4,4,8,8.0,8,8,2,3.3,4,4,"Minimum inhibitory concentration [6, 11]: 64 µM; Minimum inhibitory concentration, Average [6, 12]: 64.0 µM; Minimum inhibitory concentration ([6]; Bacillus cereus, triplicate 2): 64 µM; Minimum inhibitory concentration ([6]; Bacillus cereus, triplicate 3): 64 µM; Minimum inhibitory concentration ([7]; CLSI M27-A3, triplicate 1): 32 µM; Minimum inhibitory concentration, Average [7]: 32.0 µM; Minimum inhibitory concentration ([7]; triplicate 2): 32 µM; Minimum inhibitory concentration ([7]; triplicate 3): 32 µM; Minimum inhibitory concentration ([8]; CLSI M7-A10, triplicate 1): 8 µM; Minimum inhibitory concentration, Average [8]: 8.0 µM; Minimum inhibitory concentration ([8]; triplicate 2): 8 µM; Minimum inhibitory concentration ([8]; triplicate 3): 8 µM; Minimum inhibitory concentration [9, 13]: 512 µM; Minimum inhibitory concentration, Average [9, 14]: 512.0 µM; Minimum inhibitory concentration [9, 15]: 512 µM; Minimum inhibitory concentration [9, 16]: 512 µM; Minimum inhibitory concentration [10, 17]: 32 µM; Minimum inhibitory concentration, Average [10]: 32.0 µM; Minimum inhibitory concentration ([10]; triplicate 2): 32 µM; Minimum inhibitory concentration ([10]; triplicate 3): 32 µM"
FFYNVIKIYGNMAGRISK [Cs03],16,16.0,16,16,512,512.0,512,512,128,128.0,128,128,128,128.0,128,128,64,64.0,64,64,"Minimum inhibitory concentration [6]: 512 µM; Minimum inhibitory concentration, Average [6]: 512.0 µM; Minimum inhibitory concentration ([7]; CLSI M27-A3, triplicate 1): 32 µM; Minimum inhibitory concentration, Average [7]: 32.0 µM; Minimum inhibitory concentration ([7]; triplicate 2): 32 µM; Minimum inhibitory concentration ([7]; triplicate 3): 32 µM; Minimum inhibitory concentration ([8]; CLSI M7-A10, triplicate 1): 128 µM; Minimum inhibitory concentration, Average [8]: 128.0 µM; Minimum inhibitory concentration ([8]; triplicate 2): 128 µM; Minimum inhibitory concentration ([8]; triplicate 3): 128 µM; Minimum inhibitory concentration [9]: 512 µM; Minimum inhibitory concentration, Average [9]: 512.0 µM; Minimum inhibitory concentration [10, 17]: 128 µM; Minimum inhibitory concentration, Average [10]: 128.0 µM; Minimum inhibitory concentration ([10]; triplicate 2): 128 µM; Minimum inhibitory concentration ([10]; triplicate 3): 128 µM"
GAKLAKKQVRALGKFFSF [At03],32,32.0,32,32,32,32.0,32,32,8,8.0,8,8,512,512.0,512,512,8,8.0,8,8,"Minimum inhibitory concentration [6, 11]: 512 µM; Minimum inhibitory concentration, Average [6, 12]: 512.0 µM; Minimum inhibitory concentration ([6]; Bacillus cereus, triplicate 2): 512 µM; Minimum inhibitory concentration ([6]; Bacillus cereus, triplicate 3): 512 µM; Minimum inhibitory concentration ([7]; CLSI M27-A3, triplicate 1): 64 µM; Minimum inhibitory concentration, Average [7]: 64.0 µM; Minimum inhibitory concentration ([7]; triplicate 2): 64 µM; Minimum inhibitory concentration ([7]; triplicate 3): 64 µM; Minimum inhibitory concentration ([8]; CLSI M7-A10, triplicate 1): 16 µM; Minimum inhibitory concentration, Average [8]: 16.0 µM; Minimum inhibitory concentration ([8]; triplicate 2): 16 µM; Minimum inhibitory concentration ([8]; triplicate 3): 16 µM; Minimum inhibitory concentration [9, 13]: 512 µM; Minimum inhibitory concentration, Average [9, 14]: 512.0 µM; Minimum inhibitory concentration [9, 15]: 512 µM; Minimum inhibitory concentration [9, 16]: 512 µM; Minimum inhibitory concentration [10, 17]: 128 µM; Minimum inhibitory concentration, Average [10]: 128.0 µM; Minimum inhibitory concentration ([10]; triplicate 2): 128 µM; Minimum inhibitory concentration ([10]; triplicate 3): 128 µM"
